One compound from patent US8741889B2, “Method of treating non-small cell lung cancer and colon cancer with gamma-secretase inhibitor” (Hoffmann-La Roche Inc, priority 2008, dated 2014) can be followed below.

The term IC50 denotes the concentration that gives 50% inhibition.

For data set [1] the following is noted: mouse, in vivo, 10 mg/kg. How it is done:
Treatment for the MiaPaca2 study began on Feb. 8, 2007 (day 17 post tumor implant), for AsPC1 on Mar. 23, 2007 (day 9 post tumor implant), and for the BxPC3 study on May 30, 2007 (day 8 post tumor implant). Oral vehicle or the Compound (1) suspension was dosed using a sterile 1 cc syringe and 18-gauge gavage needle (0.2 ml/animal) once daily (qd) for 21-28 days, or using an intermittent schedule (7 days on, 7 days off, 7 days on (7+/7−/7+), 7 days on, 7 days off (7+/7−), 3 days on, 4 days off (3+/4−), or 14 days on, 14 days off (14+/14−)). Gemcitabine was administered to the mice intraperitoneally (ip) q3d (every 3 days) using a 1 cc syringe and 26 gauge needle.
Weight loss was graphically represented as percent change in mean group body weight, using the formula: ((W−W0)/W0)×100, where ‘W’ represents mean body weight of the treated group at a particular day, and ‘W0’ represents mean body weight of the same treated group at initiation of treatment.

Data set [2] deals with truncated human Notch 1 processing. The experiment in a line: Cellular Notch luciferase reporter assay in HEK293 cells. The class given is cell-based. How it is done: Multiple in vitro assays were utilized to characterize the potency and selectivity of compound (1). The primary in vitro assay uses cell-free membrane preparations to provide the -secretase enzyme complex as an in vitro assay. […] The cellular processing of APP is measured using an ELISA-based readout. HEK293 cells have been engineered to over-express APP. Processing is measured by an ELISA-based quantitation of the A 1-40 secretase product. Cellular Notch inhibitory activity is measured using HEK293 cell line stably expressing a truncated human Notch 1 fused in its intracellular domain to a VP16/[…] transcriptional activator, which drives a firefly luciferase gene Inhibition of Notch processing produces a reduction in luciferase reporter activity as measured by its chemo luminescence.
Background: In a reporter assay the amount or activity of a reporter protein is the signal.

For another data set, the system named is H460a NSCLC xenografts. In words: Antitumor efficacy in H460a NSCLC xenografts in nude mice. The class given is in vivo. How it is done:
Female nude mice (10/group), obtained from Charles River Laboratories (Wilmington, Mass.) were used when they were approximately 13-14 weeks old and weighed approximately 23-25 grams. The health of all animals was determined daily by gross observation of experimental animals and by the analyses of blood samples of sentinel animals that were housed on the shared shelf racks. All animals were allowed to acclimate and recover from any shipping related stress for a minimum of 72 hours prior to experimental use. Autoclaved water and irradiated food [5058-ms Pico chow (mouse) Purina, Richmond, Ind.] were provided ad libitum, and the animals were maintained on a 12-hour light and dark cycle. Cages, bedding and water bottles were autoclaved before use and were changed weekly. Lovo human colorectal, Calu-6 NSCLC, and HCT116 colorectal cells were purchased from ATCC (Manassas, Va.). […] NSCLC cells were a gift from Dr. Jack Roth, MD Anderson Medical Center, Houston, Tex. Lovo cells were cultured in F12K culture medium, Calu-6 and […] were grown in Dulbecco's Modified Essential Medium (DMEM), and HCT116 cells were grown in McCoy's 5A medium. All culture media were supplemented with 10% (v/v) FBS and 1% (v/v) […] L-glutamine. […] Mice implanted with Lovo and Calu-6 xenografts were randomized on day 19 post-implant, mice implanted with HCT116 xenografts were randomized on day 20, while mice implanted with […] xenografts were randomized on day 12 post implant. […] Treatment for the Lovo and Calu-6 tumor studies began on Oct. 11, 2006 (day 19 post tumor cell implant), for the HCT116 study began on Oct. 16, 2006 (day 20 post tumor cell implant), and for the […] study on Oct. 11, 2006 (12 days post tumor cell implant). […] For the Lovo and Calu-6 studies, 21 day dosing ended on day 40 post-tumor cell implant. For intermittent dosing, treatment ended on day 26, was reinitiated on day 40, and ended day 47. For the HCT116 study, 21 day dosing ended on day 42 post tumor cell implant. Intermittent dosing ended on day 27, was reinitiated on day 42, and ended day 49. For the […] study, 21 day dosing ended early on day 27 post tumor cell implant, whereas for intermittent dosing, treatment ended day 19, and was not reinitiated (due to lack of efficacy). Efficacy data was graphically represented as the mean tumor volume ±standard error of the mean (SEM). […] Statistical analysis was determined by the rank sum test and One Way Anova and a post-hoc Bonferroni t-test (SigmaStat, version 2.0, Jandel Scientific, San Francisco, Calif.). […]

With `CC(C)(C(=O)NCC(F)(F)C(F)(F)F)C(=O)N[C@@H]1C(=O)Nc2ccccc2-c2ccccc21` [Compound (1), 2,2-Dimethyl-N—((S)-6-oxo-6,7-dihydro-5H-dibenzo[b,d]azepin-7-yl)-N′-(2,2,3,3,3-pentafluoro-propyl)-malonamide], the “mice with >20% body weight loss deemed toxicity-related” value in data set [1] is on record as “one”. This compound showed an IC50 in data set [2] of 5 nM. Further, the “% TGI” value is given as 0% in the data set on H460a NSCLC xenografts (3 mg/kg po qd, dosing ended early); 0% with H460a NSCLC xenografts (10 mg/kg po qd, dosing ended early); 0% in the data set on H460a NSCLC xenografts (30 mg/kg po qd × 7 days, not reinitiated); 0% in the data set on H460a NSCLC xenografts (60 mg/kg po qd × 7 days, not reinitiated).
